# Results as given in paper PMC10220285, “Development of an assay pipeline for the discovery of novel small molecule inhibitors of human glutathione peroxidases GPX1 and GPX4” (Redox Biology, 2023).
# Legend:
# GPX1 [1] = molecular target: T1, GPX1 (Homo sapiens, UniProt P07203); experiment: Monobromobimane orthogonal endpoint assay, GPX1; assay type: biochemical; details: initial tests comparing GR-coupled and mBBr assay formats
# T1 construct: made in house; host or cells: E. coli
# T1 sequence (P07203 1-203): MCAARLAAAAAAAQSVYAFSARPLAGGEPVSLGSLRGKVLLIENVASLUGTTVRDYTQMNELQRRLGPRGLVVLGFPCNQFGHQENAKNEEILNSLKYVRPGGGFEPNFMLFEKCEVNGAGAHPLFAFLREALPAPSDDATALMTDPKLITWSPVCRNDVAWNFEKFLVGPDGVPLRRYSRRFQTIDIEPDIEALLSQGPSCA
# Description: As an orthogonal assessment of GPX inhibition, a monobromobimane endpoint assay was used (Fig. 1E). Briefly, 30 μL GPX mixture (0.01% BSA and enzyme [1 nM GPX1 or 25 nM GPX4] in TES buffer) was added to columns 2–24 of 384-well black medium-binding plates (Greiner) using a BioRAPTR FRD. TES buffer was used as a no-enzyme control in column 1. Compounds and controls were added in 11-point dose-response titration and incubated with enzyme for 30 min whereupon 10 μL of 400 μM GSH in TES buffer was added before starting the reaction with the addition of 10 μL 200 μM CHP and the reaction was left at room temperature for 10 min (GPX1) or 15 min (GPX4). Upon GPX activity, GSH was depleted over time, whereupon 500 μM mBBr was added and fluorescence at 394/490 was measured using a Viewlux multimodal detector every 20 s for 20 min.
# (§1) Percent activity was determined by first calculating delta RFU (decrease in fluorescence between t = 0 and t = 20/30 min in primary GPX, GR counter-screen, and TXNRD1 assays, or increase in fluorescence between t = 0 and t = 20 min in the Monobromobimane GPX endpoint assay), and normalizing enzyme activity using median delta RFU values for DMSO-treated enzyme control, and DMSO-treated no-enzyme controls.
# Monobromobimane (mBBr) is a heterocyclic compound that reacts readily with low molecular weight thiols, like glutathione. […]
# GPX1 [2] = molecular target: T1, GPX1; experiment: nanoDSF thermal stabilization, GPX1; assay type: binding
# Description: Thermal stabilization of enzyme ± DMSO or ± compound was carried out in a Prometheus NT.48 instrument (NanoTemper Technologies) with an excitation wavelength of 280 nm. Intrinsic fluorescence at 330 nm and 350 nm was monitored while heating. Capillaries were filled with ∼10 μL of a solution of GPX1/4 (1 mg/mL), ± small molecule (100 μM) or DMSO, in TES buffer and placed into the instrument. The capillaries were subjected to a temperature range from 30 to 90 °C at a ramp rate of 2 °C/min. The ratio of the recorded emission intensities (350nm/330 nm) were plotted as a function of temperature. This ratio and first derivatives were calculated using the NanoTemper software and were plotted using GraphPad Prism.
# [3] = molecular target: T2, GR (glutathione reductase) (Homo sapiens, UniProt P00390); experiment: GR counter-assay; assay type: biochemical; details: Fig. 9 pan-selenoprotein inhibitors
# T2 construct: made in house
# T2 sequence (P00390 44-522): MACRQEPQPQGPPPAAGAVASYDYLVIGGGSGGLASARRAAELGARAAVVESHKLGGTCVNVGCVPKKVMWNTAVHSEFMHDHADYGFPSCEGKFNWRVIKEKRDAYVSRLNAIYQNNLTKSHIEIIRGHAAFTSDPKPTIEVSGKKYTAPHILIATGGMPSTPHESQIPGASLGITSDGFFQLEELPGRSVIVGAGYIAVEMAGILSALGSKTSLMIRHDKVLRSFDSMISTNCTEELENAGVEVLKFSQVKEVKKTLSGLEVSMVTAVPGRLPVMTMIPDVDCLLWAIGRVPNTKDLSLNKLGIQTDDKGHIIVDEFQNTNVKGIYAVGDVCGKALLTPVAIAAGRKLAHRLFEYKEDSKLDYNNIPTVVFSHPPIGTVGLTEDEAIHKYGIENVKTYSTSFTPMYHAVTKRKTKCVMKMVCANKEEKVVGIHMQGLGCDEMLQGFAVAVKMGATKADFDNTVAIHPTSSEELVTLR
# Description: The compound plates were prepared as described previously. Purified recombinant human GPX1, GPX2, GPX4, GR, and TXNRD1 were produced and purified as previously reported [[48], [49], [50]]. As production of GPX2 was not optimized at the onset of screening, only GPX1 and GPX4 underwent library screening, and GPX2 was used as a follow-up.
# Follow-up and orthogonal assays were run in quadruplicate unless otherwise stated. Assay schemes are illustrated in Fig. 1.
# To identify false positive compounds that interfere with the primary assay through inhibition of GR, ‘hits’ from the primary screening were run against a GR counter assay to identify this possible off-target inhibition (Fig. 1C). Briefly, 3 μL enzyme mixture (100 nM GR, 0.01% BSA in TES buffer) was dispensed into columns […] of a 1536-well black medium-binding solid-bottom plates. The no-enzyme control (0.01% BSA in TES buffer) was included in column 1 and 2. Compounds and controls (23 nL) were added to each well with a pin tool (Kalypsys), and the plates were incubated for 30 min before 2 μL of substrate mixture (1 mM GSSG 0.4 mM NADPH in TES buffer) was added to each well and absorbance at 340 nm was measured at t = 0 and t = 20 min using a ViewLux Multimodal detector (PerkinElmer).
# as §1
# Compound inhibitory activity in the qHTS assays was determined by plotting dose-response data for each sample and fitting with a four-parameter logistic fit to assess IC50 values, efficacy (maximal response), and AUC (area under the curve), as previously described. Hits were classified by the quality of the concentration-response curves (CRC). Curve classes −1.1 and −1.2 being the highest-confidence actives with complete CRCs and classes −2.1 and −2.2 being lower-confidence actives with incomplete CRCs.
inhibition of GR [3],Compound,IC50 (GPX1 [1]),"GSH Binding (ΔTm) GPx1; shift in nanoDSF melting temperature (GPX1 [2]; 100 μM small molecule vs DMSO control, first or only inflection point)",thermal stabilization of GPX1 (GPX1 [2]; nanoDSF)
,CC(=O)OC[C@H]1O[C@@H]([S-])[C@H](OC(C)=O)[C@@H](OC(C)=O)[C@@H]1OC(C)=O.CCP(CC)CC.[Au+] [Auranofin],5.3 µM,+8.3 °C,significant shifts in the melting temperature of GPX1
not GR,"O=S(=O)(O)CC(S)CS (stereo not shown) [2,3-dimercaptopropanesulfonate]",,,
